Data: US12551463B2, “Dosing of a Bruton's tyrosine kinase inhibitor” (Loxo Oncology, Inc., priority 2019, dated 2026)
Read-outs that look alike come from different tables or passages of the source.

Experiments:
[1] = test system: CLL/SLL; test: Phase 1/2 clinical study, CLL/SLL patients; format: in vivo, human
Description: The study is an open-label, multi-center study of oral BTK-I to evaluate safety and efficacy as monotherapy and as part of combination therapy in patients with CLL/SLL and NHL who have failed or are intolerant to standard of care. This study includes monotherapy as well as combination treatment parts. The monotherapy part includes Phase 1 dose escalation and dose expansion as well as Phase 2. The combination therapy part is a Phase 1b (safety assessment and expansion) of BTK-I in combination with venetoclax, with or without anti-CD20 therapy. Phase 1 dose escalation will proceed prior to start of Phase 1b or Phase 2. Once a recommended Phase 2 dose (RP2D) is identified in Phase 1, enrollment can commence to the Phase 1b combination therapies and Phase 2 monotherapy cohorts.
The primary objectives of the Phase 1 Dose Escalation and Expansion part of the study is to determine the maximum tolerated dose (MTD)/RP2D of oral BTK-I in patients with previously treated CLL/SLL and B-cell NHL.
Patients are enrolled with histologically confirmed CLL/SLL or B-cell NHL who have failed or are intolerant to at least two prior standard of care regimens given in combination or sequentially or have received at least one prior BTK inhibitor-containing regimen when BTK inhibitor is approved in first line.
BTK-I is administered in oral tablet form. Dose escalation will follow a 3+3 design starting with a 25 mg QD dose (followed by 50 mg QD (dose level cohort 2), 100 mg QD (dose level cohort 3), 150 mg QD (dose level cohort 4), 200 mg QD (dose level cohort 5), 250 mg QD (dose level cohort 6), and 300 mg QD (dose level cohort 7)). Cycle length will be 28 days. The drug limiting toxicity (DLT) period will be 28 days, commencing with the first dose of BTK-I.
The primary objective of the Phase 2 is to assess the primary anti-tumor activity of BTK-I based on overall response rate (ORR) and as assessed by the Independent Review Committee.
At the RP2D up to ˜600 patients with CLL/SLL or NHL will be enrolled to one of the following cohorts: • Cohort 1: Non-blastoid MCL patients treated with a prior BTK-inhibitor. • Cohort 2: CLL/SLL patients treated with 2 or more prior regimens, including a BTK inhibitor-containing regimen. • Cohort 3: CLL/SLL patients with no prior therapy. • Cohort 4: CLL/SLL patients treated with prior therapy, BTK inhibitor naive. • Cohort 5: WM patients treated with a prior BTK inhibitor containing regimen. • Cohort 6: MZL patients treated with a prior BTK inhibitor containing regimen. • Cohort 7: (Not otherwise specified) defined as CLL/SLL or NHL not otherwise specified in Cohorts 1 through 6, inclusive of CLL/SLL or NHL, Richter's transformation, blastoid MCL, and patients with history of CNS involvement or primary CNS lymphoma.
Dosing during Phase 2 will be at the RP2D of 200 mg QD. The cycle length will be 28 days. BTK-I will be administered to the Phase 2 patients in oral tablet form at the RP2D. The dose (and schedule) chosen for Phase 2 may be changed by the SRC based on emerging data (e.g., PK, safety, and/or efficacy) as long as the new dose is not greater than the highest dose that has a DLT <33% and is determined to be safe by the SRC in Phase 1. If the RP2D is changed based on emerging data, patients enrolled to Phase 2 at a different dose may have the dose changed to the new dose.

[2] = molecular target: T1, BTK C481S mutant (Homo sapiens, UniProt Q06187, C481S); test: BTK Y223 autophosphorylation in HEK293 cells expressing BTK C481S mutant; format: cell-based
T1 construct: expressed in transfected cells
Experimental: HEK293 cell lines stably expressing BTK wild type and the mutant form C481S are generated using standard transfection methods. For assessment of cellular inhibition potency, cells are grown in DMEM+10% FBS+1 μg/mL puromycin (complete growth media) at 37° C. in a C02 incubator. Cells are harvested according to standard protocols using TrypLE (Gibco #12604-013), counted, resuspended in complete growth media, and added to 6 well assay plates at […] in 2 mL. Plates are incubated overnight at 37° C. with 5% C02. The following day, cells are treated for 2 hours with BTK-I, prepared as a 6-point dose curve, 1:3 dilution series with final concentrations starting at a maximum concentration of 300 nM and a constant DMSO concentration of 0.5% (v/v). Control wells contain 0.5% (v/v) DMSO alone (no inhibition control). […] Supernatants are quantified by BCA (Pierce #23225) and stored at −80° C. Samples are analyzed by Simple Western (Protein Simple) with anti-phospho-BTK (Y223) (Cell signaling technologies (cst) #5082) and anti-BTK (cst #8547). β-actin is the used as a loading control and detected by regular Western blot with an anti-β-actin antibody (cst #4970). Simple Western results are analyzed with Compass software (Protein Simple). BTK Y223 phosphorylation signal is normalized to total BTK, and IC50 values are calculated using a 4-parameter fit in GraphPad Prism 7.04 software.

T1 sequence (Q06187 whole entry C481S): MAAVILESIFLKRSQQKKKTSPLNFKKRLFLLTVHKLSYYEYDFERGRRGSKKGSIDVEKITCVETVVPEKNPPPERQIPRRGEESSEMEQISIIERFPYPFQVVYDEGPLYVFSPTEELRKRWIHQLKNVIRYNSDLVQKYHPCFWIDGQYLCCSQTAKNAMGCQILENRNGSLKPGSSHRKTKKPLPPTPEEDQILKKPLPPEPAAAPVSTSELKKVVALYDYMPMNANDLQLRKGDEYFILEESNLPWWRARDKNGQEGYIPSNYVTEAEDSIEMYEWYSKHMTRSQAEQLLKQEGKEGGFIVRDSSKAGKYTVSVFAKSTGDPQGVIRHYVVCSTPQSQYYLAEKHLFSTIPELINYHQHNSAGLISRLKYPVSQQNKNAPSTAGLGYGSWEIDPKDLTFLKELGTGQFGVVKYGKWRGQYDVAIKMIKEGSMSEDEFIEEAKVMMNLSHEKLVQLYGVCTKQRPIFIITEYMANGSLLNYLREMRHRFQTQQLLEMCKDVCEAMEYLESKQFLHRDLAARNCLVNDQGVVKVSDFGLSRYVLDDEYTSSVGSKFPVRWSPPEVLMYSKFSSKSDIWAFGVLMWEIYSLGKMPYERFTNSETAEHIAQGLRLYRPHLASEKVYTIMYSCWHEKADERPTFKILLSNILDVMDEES

**Q.** How did the ORR ([1]; 28 patients with 17p deletion, TP53 mutation, or both) turn out when `COc1ccc(F)cc1C(=O)NCc1ccc(-c2nn([C@@H](C)C(F)(F)F)c(N)c2C(N)=O)cc1` [BTK-I, (S)-5-amino-3-(4-((5-fluoro-2-methoxybenzamido)methyl)phenyl)-1-(1,1,1-trifluoropropane-2-yl)-1H-pyrazole-4-carboxamide] was run?
**A.** 79%

**Q.** What about the ORR ([1]; 121 BTK-pretreated patients, CI: 53-71%) of the same compound?
**A.** 62%

**Q.** And the ORR ([1]; 139 efficacy-evaluable CLL/SLL patients, all dose levels, 95% CI: 55-71)?
**A.** 63%

**Q.** And the “patients remaining on BTK-I” value ([1]; all CLL/SLL patients)?
**A.** 88%

**Q.** What about the ORR ([1]; at ≥10 months (25/29)) of the same compound?
**A.** 86%

**Q.** And the ORR ([1]; discontinued covalent BTK inhibitor for progression [53/79])?
**A.** 67%

**Q.** And the ORR ([1]; discontinued covalent BTK inhibitor for toxicity or another reason [22/42])?
**A.** 52%

**Q.** And the ORR ([1]; followed for at least 8 months (35/49))?
**A.** 71%

**Q.** What about the “BTK C481 mutant allele fraction from peripheral blood mononuclear cells” value ([1]; majority of responding patients) of the same compound?
**A.** decreased over time

**Q.** What about the “responding patients no longer on therapy” value ([1]; of 88 responders (4 progressed, 1 electively discontinued)) of the same compound?
**A.** 5

**Q.** What about the “non-evaluable (NE), patients” value ([1]; of 139, discontinued prior to first response assessment) of the same compound?
**A.** 5

**Q.** What about the “PR-L, patients” value ([1]; of 139 efficacy-evaluable) of the same compound?
**A.** 19

**Q.** And the “partial response (PR), patients” value ([1]; of 139 efficacy-evaluable)?
**A.** 69

**Q.** What about the “progressive disease (PD), patients” value ([1]; of 139 efficacy-evaluable) of the same compound?
**A.** 1

**Q.** And the “stable disease (SD), patients” value ([1]; of 139 efficacy-evaluable)?
**A.** 45

**Q.** And the ORR ([1]; progression on prior covalent BTK inhibitor, with BTK C481 mutation [15/20])?
**A.** 75%

**Q.** And the ORR ([1]; progression on prior covalent BTK inhibitor, without BTK C481 mutation [18/30])?
**A.** 60%

**Q.** What about the IC90 ([2]; read-out: IC90) of the same compound?
**A.** 79.2 nM

**Q.** And the IC90 ([2]; read-out: IC90 translated to total drug in human plasma)?
**A.** 0.824 µg/mL
